# Structures can show the parent of a compound that is named as a salt.
# Tested on: IL-2 production
# Test: Inhibition of IL-2 production in PHA-activated Jurkat cells (ELISA)
# Type: cell-based, human
# Conditions: Homo sapiens, Jurkat, 20 h, Jurkat cells, PHA 2.5 μg/mL, 20 hours, IL-2 ELISA; read-out: IC50 (inhibition of IL-2 production)
# Procedure: Jurkat cells were placed in a 96 well plate (0.5 million cells per well in 1% FBS medium) then a test compound of this invention was added at different concentrations. After 10 minutes, the cells were activated with PHA (final concentration 2.5 μg/mL) and incubated for 20 hours at 37° C. under CO2. The final volume was 200 μL. Following incubation, the cells were centrifuged and the supernatants collected and stored at −70° C. prior to assaying for IL-2 production. A commercial ELISA kit (IL-2 Eli-pair, Diaclone Research, Besancon, France) was used to detect production of IL-2, from which dose response curves were obtained. The IC50 value was calculated as the concentration at which 50% of maximum IL-2 production after stimulation was inhibited versus a non-stimulation control.
row,SMILES,IC50
1,"Cc1ccc(-c2ccncc2)cc1-c1ccc(NC(=O)c2c(F)cccc2F)cc1 [Compound 30, 2,6-Difluoro-N-[2′-methyl-5′-(pyridine-4-yl)-biphenyl-4-yl]-benzamide]",3 nM
2,O=C(Nc1ccc(-c2cc(-c3ncco3)ccc2Cl)cc1)c1c(F)cccc1F [Compound 31],6 nM
3,"Cc1cnccc1C(=O)Nc1ccc(-c2cc(-c3ccno3)ccc2C)cc1 [Compound 32, 3-Methyl-N-[5′-(isoxazol-5-yl)-2′-methyl-biphenyl-4-yl]-isonicotinamide]",4 nM
4,"Cc1cc(-c2ccc(C)c(-c3ccc(NC(=O)c4c(F)cccc4F)cc3)c2)[nH]n1 [Compound 37, 2,6-Difluoro-N-[2′-methyl-5′-(3-methyl-1H-pyrazol-5-yl)-biphenyl-4-yl]-benzamide]",11 nM
5,"Cc1csc(-c2ccc(C)c(-c3ccc(NC(=O)c4c(F)cccc4F)cc3)c2)n1 [Compound 38, 2,6-Difluoro-N-[2′-methyl-5′-(4-methyl-thiazol-2-yl)-biphenyl-4-yl]-benzamide]",3 nM
6,Cc1ccc(-c2nc(C(F)(F)F)cs2)cc1-c1ccc(NC(=O)c2c(F)cccc2F)cc1 [Compound 39],13 nM
7,"Cc1csc(-c2ccc(C)c(-c3ccc(NC(=O)c4ccncc4C)cc3)c2)n1 [Compound 40, 3-Methyl-N-[5′-(4-methyl-thiazol-2-yl)-2′-methyl-biphenyl-4-yl]-isonicotinamide]",11 nM
8,"Cc1ccc(-c2ccc[nH]2)cc1-c1ccc(NC(=O)c2c(F)cccc2F)cc1 [Compound 41, 2,6-Difluoro-N-[2′-methyl-5′-(1H-pyrrol-2-yl)-biphenyl-4-yl]-benzamide]",18 nM
9,"Cc1ccc(-c2noc(=O)[nH]2)cc1-c1ccc(NC(=O)c2c(F)cccc2F)cc1 [Compound 42, 2,6-Difluoro-N-[2′-methyl-5′-(5-oxo-4,5-dihydro-[1,2,4]-oxadiazol-3-yl)-biphenyl-4-yl]-benzamide]",> 1000 nM
10,"Cc1ccc(N2CCOCC2)cc1-c1ccc(NC(=O)c2c(F)cccc2F)cc1 [Compound 43, 2,6-Difluoro-N-[2′-methyl-5′-(morpholino-4-yl)-biphenyl-4-yl]-benzamide]",26 nM
11,"COc1ccc(-c2ccco2)cc1-c1ccc(NC(=O)c2ccncc2C)cc1 [Compound 47, 3-Methyl-N-[2′-methoxy-5′-(furan-2-yl)-biphenyl-4-yl]-isonicotinamide]",59 nM
12,"Cc1cnccc1C(=O)Nc1ccc(-c2cc(-c3ncco3)ccc2N(C)C)cc1 [Compound 48, 3-Methyl-N-[5′-(oxazol-2-yl)-2′-(N,N-dimethylamino)-biphenyl-4-yl]-isonicotinamide]",320 nM
13,"COc1ccc(-c2ncco2)cc1-c1ccc(NC(=O)c2ccncc2C)cc1 [Compound 50, 3-Methyl-N-[5′-(oxazol-2-yl)-2′-methoxy-biphenyl-4-yl]-isonicotinamide]",23 nM
14,"COc1ccc(-c2ncco2)cc1-c1ccc(NC(=O)c2c(F)cncc2F)cc1 [Compound 51, 3,5-Difluoro-N-[5′-(oxazol-2-yl)-2′-methoxy-biphenyl-4-yl]-isonicotinamide]",11 nM
15,"COc1ccc(-c2cccs2)cc1-c1ccc(NC(=O)c2ccncc2C)cc1 [Compound 52, 3-Methyl-N-[5′-(thien-2-yl)-2′-methoxy-biphenyl-4-yl]-isonicotinamide]",35 nM
16,"Cc1ccc(-c2nncs2)cc1-c1ccc(NC(=O)c2c(F)cncc2F)cc1 [Compound 53, 3,5-Difluoro-N-[5′-([1,3,4]thiadiazol-2-yl)-2′-methyl-biphenyl-4-yl]-isonicotinamide]",6 nM
17,"Cc1cnccc1C(=O)Nc1ccc(-c2cc(-c3nccs3)ccc2Cl)cc1 [Compound 55, 3-Methyl-N-[5′-(thiazol-2-yl)-2′-chloro-biphenyl-4-yl]-isonicotinamide]",6 nM
18,"O=C(Nc1ccc(-c2cc(-c3nccs3)ccc2Cl)cc1)c1c(F)cccc1F [Compound 56, 2,6-Difluoro-N-[2′-chloro-5′-(thiazol-2-yl)-biphenyl-4-yl]-benzamide]",2 nM
19,"Cc1ccc(-c2nncs2)cc1-c1ccc(NC(=O)c2c(F)cccc2F)cc1 [Compound 59, 2,6-Difluoro-N-[2′-methyl-5′-([1,3,4]thiadiazol-2-yl)-biphenyl-4-yl]-benzamide]",3 nM
20,"Cc1ccc(-c2nnc(N)s2)cc1-c1ccc(NC(=O)c2c(F)cccc2F)cc1 [Compound 62, 2,6-Difluoro-N-[2′-methyl-5′-(5-amino-[1,3,4]thiadiazol-2-yl)-biphenyl-4-yl]-benzamide]",19 nM
21,"Cc1ccc(-c2ncnn2C)cc1-c1ccc(NC(=O)c2c(F)cccc2F)cc1 [Compound 66, 2,6-Difluoro-N-[2′-methyl-5′-(2-methyl-2H-[1,2,4]triazol-3-yl)-biphenyl-4-yl]-benzamide]",8 nM
22,"Cc1ccc(-c2nnco2)cc1-c1ccc(NC(=O)c2c(F)cncc2F)cc1 [Compound 68, 3,5-Difluoro-N-[2′-methyl-5′-([1,3,4]oxadiazol-2-yl)-biphenyl-4-yl]-isonicotinamide]",3 nM
23,"Cc1ccc(-c2nnco2)cc1-c1ccc(NC(=O)c2c(F)cccc2F)cc1 [Compound 69, 2,6-Difluoro-N-[2′-methyl-5′-([1,3,4]oxadiazol-2-yl)-biphenyl-4-yl]-benzamide]",5 nM

# More lines, now with the values ahead:
row,IC50,SMILES
1,4 nM,"Cc1ccc(-c2ccno2)cc1-c1ccc(NC(=O)c2snnc2C)cc1 [Compound 33, 4-Methyl-[1,2,3]thiadazole-5-carboxylic acid [2′-methyl-5′-(isoxazol-5-yl)-biphenyl-4-yl]-amide]"
2,2 nM,"Cc1cc(-c2ccc(C)c(-c3ccc(NC(=O)c4c(F)cccc4F)cc3)c2)on1 [Compound 35, 2,6-Difluoro-N-[2′-methyl-5′-(3-methyl-isoxazole-5-yl)-biphenyl-4-yl]-benzamide]"
3,4 nM,"Cc1cc(-c2ccc(C)c(-c3ccc(NC(=O)c4ccncc4C)cc3)c2)on1 [Compound 36, 3-Methyl-N-[5′-(3-methyl-isoxazol-5-yl)-2′-methyl-biphenyl-4-yl]-isonicotinamide]"
4,> 1000 nM,"Cc1cnccc1C(=O)Nc1ccc(-c2cc(-c3nnn[nH]3)ccc2C)cc1 [Compound 44, 3-Methyl-N-[2′-methyl-5′-(1H-tetrazol-5-yl)-biphenyl-4-yl]-isonicotinamide]"
5,50 nM,"O=C(Nc1ccc(-c2cc(-c3ncco3)ccc2Cl)cc1)c1c(F)cncc1F [Compound 45, 3,5-Difluoro-N-[5′-(oxazol-2-yl)-2′-chloro-biphenyl-4-yl]-isonicotinamide]"
6,12 nM,"Cc1cnccc1C(=O)Nc1ccc(-c2cc(-c3nnnn3C)ccc2C)cc1 [Compound 49, 3-Methyl-N-[2′-methyl-5′-(1-methyl-1H-tetrazol-5-yl)-biphenyl-4-yl]-isonicotinamide]"
7,12 nM,"Cc1ccc(-c2nccs2)cc1-c1ccc(NC(=O)c2ccncc2F)cc1 [Compound 54, 3-Fluoro-N-[5′-(thiazol-2-yl)-2′-methyl-biphenyl-4-yl]-isonicotinamide]"
8,3 nM,"O=C(Nc1ccc(-c2cc(-c3nccs3)ccc2Cl)cc1)c1c(F)cncc1F [Compound 57, 3,5-Difluoro-N-[5′-(thiazol-2-yl)-2′-chloro-biphenyl-4-yl]-isonicotinamide]"
9,2 nM,"O=C(Nc1ccc(-c2cc(-c3nccs3)ccc2Cl)cc1)c1ccncc1F [Compound 58, 3-Fluoro-N-[5′-(thiazol-2-yl)-2′-chloro-biphenyl-4-yl]-isonicotinamide]"
10,13 nM,"Cc1cnccc1C(=O)Nc1ccc(-c2cc(-c3nncs3)ccc2C)cc1 [Compound 60, 3-Methyl-N-[5′-([1,3,4]thiadiazol-2-yl)-2′-methyl-biphenyl-4-yl]-isonicotinamide]"
11,6 nM,"Cc1ccc(-c2nncs2)cc1-c1ccc(NC(=O)c2ccncc2F)cc1 [Compound 61, 3-Fluoro-N-[5′-([1,3,4]thiadiazol-2-yl)-2′-methyl-biphenyl-4-yl]-isonicotinamide]"
12,> 1000 nM,"Cc1ccc(-c2nnc(N(C)C)s2)cc1-c1ccc(N(C)C(=O)c2c(F)cccc2F)cc1 [Compound 63, 2,6-Difluoro-N-{2′-methyl-5′-[5-(N,N-dimethylamino)-[1,3,4]thiadiazol-2-yl]-biphenyl-4-yl}-N-methyl-benzamide]"
13,53 nM,"Cc1ccc(-c2nnc(N(C)C)s2)cc1-c1ccc(NC(=O)c2c(F)cccc2F)cc1 [Compound 64, 2,6-Difluoro-N-{2′-methyl-5′-[5-(N,N-dimethylamino)-[1,3,4]thiadiazol-2-yl]-biphenyl-4-yl}-benzamide]"
14,27 nM,"Cc1ccc(-c2ncnn2C)cc1-c1ccc(NC(=O)c2ccncc2F)cc1 [Compound 67, 3-Fluoro-N-[2′-methyl-5′-(2-methyl-2H-[1,2,4]triazol-3-yl)-biphenyl-4-yl]-isonicotinamide]"

# Same assay, conditions: Homo sapiens, Jurkat, 20 h, read-out: IC50 (inhibition of IL-2 production)
row,SMILES,IC50
1,"Cc1ccc(-c2nnn[nH]2)cc1-c1ccc(NC(=O)c2c(F)cccc2F)cc1 [Compound 65, 2,6-Difluoro-N-[2′-methyl-5′-(1H-tetrazol-5-yl)-biphenyl-4-yl]-benzamide, sodium salt]",> 1000 nM

# Same assay, conditions: Homo sapiens; Jurkat cells, PHA 2.5 μg/mL, 20 hours, IL-2 ELISA; read-out: IC50 (inhibition of IL-2 production)
row,SMILES,IC50
1,"Cc1cnccc1C(=O)Nc1ccc(-c2cc(-c3cnco3)ccc2C)cc1 [Compound 29, 3-Methyl-N-[5′-(oxazol-5-yl)-2′-methyl-biphenyl-4-yl]-isonicotinamide, HCl salt]",9 nM
2,"Cc1cnccc1C(=O)Nc1ccc(-c2cc(-c3ccno3)ccc2C)cc1 [Compound 34, 3-Methyl-N-[5′-(isoxazol-5-yl)-2′-methyl-biphenyl-4-yl]-isonicotinamide, HCl salt]",11 nM

# From patent US8592486B2, “Compounds for inflammation and immune-related uses” (Synta Pharmaceuticals Corp., priority 2005, dated 2013)
